Test results taken from patent US20030171361A1, “Pyrrolopyrimidinone derivatives, process of preparation and use” (priority 2002, published 2003).

Assays:
rabbit platelet PDE V = rabbit platelet PDE V (Oryctolagus cuniculus, UniProt G1SX67); experiment: inhibition of cGMP PDE V activity (PDE SPA assay kit, [3H]-cGMP); assay type: biochemical; details: in vitro, inhibitors of cGMP PDE V; rabbit platelet enzyme, 30° C., 30 min
Description: The rabbit platelet PDE V was prepared using the method described by Hidaka et al.(Biochim. Biophys. Acta., 429: 485-497, 1976) with minor modification. The platelet-rich plasma (PRP) was prepared by centrifugation of freshly obtained heparinized whole blood at 360 g. Platelets were isolated from the PRP by centrifugation at 1,200 g. Platelet homogenates were prepared in the homogenization buffer (50 mM Tris-HCl buffer containing 1 mM MgCl2, pH 7.4) by sonication for 30 s per 1 mL. The homogenized solutions were then centrifuged at 40,000×g for 2 h at 4° C. The supernatant was loaded on the DEAE-cellulose column (20 mL bed volume, Sigma) pre-equilibrated with equilibration buffer (50 mM Tris-acetate containing 3.75 mM 2-mercaptoethanol, pH 6.0).The column was then washed with 60 mL of equilibration buffer. The PDE isozymes were eluted using a continuous gradient of 0 to 600 mM sodium acetate in the equilibration buffer (60 mL total volume). The 1.0 mL fractions were collected. A flow rate of 60 mL/h was used throughout the ion-exchange chromatography procedure. PDE activities on cAMP and cGMP were characterized as described below. The characterized fractions were pooled and stored at −80 ° C. until the inhibition studies
The cyclic nucleotide PDE V activity was determined using PDE SPA assay kit (Amersham Pharmacia biotech, UK).Each reaction mixture (100 μL total volume) consisted of the column elute containing PDE V (10 μL), [^3H]-cGMP (5 μCi/mL), bovine serum albumin (0.5 mg/mL), and MgCl2 (5 mM) in Tris-HCl buffer (15 mM, pH 7.5).The reactions were initiated by the addition of PDE V and the samples were incubated at 30° C. for 30 min, after which the reaction was stopped by the addition of 50 μL of SPA beads. The reaction tube was then settled for 20 min and was counted on the scintillation counter (Tri-carb 1500, Packard, USA). For the inhibition study of PDE V activity, the test compounds were dissolved in dimethyl sulfoxide (DMSO) and was diluted with distilled water. The final concentration of DMSO was less than 0.2% (v/v).All the inhibition experiments were conducted tinder the conditions where the level of cGMP hydrolysis (lid not exceed 15%, and the product formation increased linearly with time and the amount of enzyme.
The following Table illustrates the in vitro activities for a range of the compounds of the invention as inhibitors of cGMP PDE V.

SMILES	IC50 (rabbit platelet PDE V) [nM]	melting point [°C]
CCCc1cn(C)c2c(=O)[nH]c(-c3cc(S(=O)(=O)N4CCN(C)CC4)ccc3OCC)nc12 [Example 1, 52-(2-ethoxy-5-(4-methylpiperazinylpiperazin-1-ylsulfonyl)phenyl)-15-methyl-37-n-propyl-1,63,5-dihydro-7H4H-pyrrolo[4,33,2-d]pyrimidin-74-one]	2.9	220.5 to 221
CCCOc1ccc(S(=O)(=O)N2CCN(C)CC2)cc1-c1nc2c(CCC)cn(C)c2c(=O)[nH]1 [Example 3, 52-(5-(4-methylpiperazinylpiperazin-1-ylsulfonyl)-2-n-propoxyphenyl)-15-methyl-37-n-propyl-1,63,5-dihydro-7H4H-pyrrolo[4,33,2-d]pyrimidin-74-one]	0.59	183 to 183.5
CCCc1cn(C)c2c(=O)[nH]c(-c3cc(S(=O)(=O)N4CCN(CCCF)CC4)ccc3OCC)nc12 [Example 14, 52-(2-ethoxy-5-(4-(3-fluoropropyl)piperazinylpiperazin-1-ylsulfonyl)phenyl)-15-methyl-37-n-propyl-1,63,5-dihydro-7H4-pyrrolo[4,33,2-d]pyrimidin-74-one]	1.36	217.5 to 218
CCOc1ccc(S(=O)(=O)N2CCN(CCCF)CC2)cc1-c1nc2c(CC)cn(CC)c2c(=O)[nH]1 [Example 18, 52-(2-ethoxy-5-(4-(3-fluoropropyl)piperazinylpiperazin-1-ylsulfonyl)phenyl)-15-ethyl-37-ethyl-1,63,5-dihydro-7H4H-pyrrolo[4,33,2-d]pyrimidin-74-one]	2.23	182 to 182.5
CCOc1ccc(S(=O)(=O)N2CCN(CCCF)CC2)cc1-c1nc2c(CCCF)cn(CC)c2c(=O)[nH]1 [Example 26, 52-(2-ethoxy-5-(4-(3-fluoropropyl)piperazinylpiperazin-1-ylsulfonyl)phenyl)-15-ethyl-37(3-fluoropropyl)-1,63,5-dihydro-7H4H-pyrrolo-[4,33,2-d]pyrimidin-74-one]	0.62	194 to 194.5
CCCOc1ccc(S(=O)(=O)N2CCN(CCO)CC2)cc1-c1nc2c(CCCF)cn(CC)c2c(=O)[nH]1 [Example 30]	0.18	162 to 163
CCCOc1ccc(S(=O)(=O)N2CCN(CCO)CC2)cc1-c1nc2c(CCC)cn(CC)c2c(=O)[nH]1 [Example 31]	0.33	
CCCOc1ccc(S(=O)(=O)N2CCN(CCCF)CC2)cc1-c1nc2c(CCC)cn(C)c2c(=O)[nH]1 [Example 37, 52-(5-(4-(3-fluoropropyl)piperazinylpiperazin-1-ylsulfonyl)-2-n-propoxyphenyl)-15-methyl-37-n-propyl-1,63,5-dihydro-7H4H-pyrrolo[4,33,2-d]pyrimidin-74-one]	0.64	
CCCc1cn(C)c2c(=O)[nH]c(-c3cc(S(=O)(=O)N4CCN(CCO)CC4)ccc3OCC)nc12 [Example 51, 52-(2-ethoxy-5-(4-(2-hydroxyethyl)piperazinylpiperazin-1-ylsulfonyl)phenyl)-15-methyl-37-n-propyl-1,63,5-dihydro-7H4H-pyrrolo[4,33,2-d]pyrimidin-74-one]	2.06	
CCCOc1ccc(S(=O)(=O)N2CCN(CCO)CC2)cc1-c1nc2c(CCC)cn(C)c2c(=O)[nH]1 [Example 53, 52-(5-(4-(2-hydroxyethyl)piperazinylpiperazin-1-ylsulfonyl)-2-n-propoxyphenyl)-15-methyl-37-n-propyl-1,63,5-dihydro-7H4H-pyrrolo[4,33,2-d]pyrimidin-74-one]	0.49	
CCCc1cn(C)c2c(=O)[nH]c(-c3cc(S(=O)(=O)N4CCC(CCC(=O)O)CC4)ccc3OCC)nc12 [Example 123, 52-(2-ethoxy-5-(4-(2-hydroxycarbonylethyl)piperidinylpiperidin-1-ylsulfonyl)phenyl)-15-methyl-37-n-propyl-1,63,5-dihydro-7H4H-pyrrolo[4,33,2-d]pyrimidin-74-one]	0.71	129 to 130.5
CCCOc1ccc(S(=O)(=O)N2CCC(CCC(=O)O)CC2)cc1-c1nc2c(CCC)cn(C)c2c(=O)[nH]1 [Example 124, 52-(5-(4-(2-hydroxycarbonylethyl)piperidinylpiperidin-1-ylsulfonyl)-2-n-propoxyphenyl)-15-methyl-37-n-propyl-1,63,5-dihydro-7H4H-pyrrolo[4,33,2-d]pyrimidin-74-one]	0.27	
